Experimental data as given in the NIST ThermoML archive (doi:10.1021/je900124n).
Several values for one entry are separate records, joined by “and”; a condition that tells them apart may be missing. Identical values can stand only once. ± gives the expanded uncertainty stated by the source.

Conditions: Fluid (supercritical or subcritical phases), Buoyancy - hydrostatic balance with magnetic suspension - two sinkers

CCC [propane]
Conditions | mass density
460 K, 1046.1 kPa | 12.5822 ± 0.0038 kg/m3
460 K, 1046.4 kPa | 12.585 ± 0.0038 kg/m3
460 K, 1046.5 kPa | 12.5879 ± 0.0038 kg/m3
460 K, 1830.3 kPa | 22.7747 ± 0.02 kg/m3
460 K, 1830.7 kPa | 22.7788 ± 0.02 kg/m3 and 22.7791 ± 0.02 kg/m3
460 K, 1830.9 kPa | 22.7814 ± 0.02 kg/m3
460 K, 2892.4 kPa | 37.7704 ± 0.022 kg/m3 and 37.7706 ± 0.022 kg/m3
460 K, 2892.5 kPa | 37.7721 ± 0.022 kg/m3 and 37.7722 ± 0.022 kg/m3
460 K, 2892.6 kPa | 37.7743 ± 0.022 kg/m3
460 K, 4123 kPa | 57.2169 ± 0.025 kg/m3
460 K, 4123.1 kPa | 57.2175 ± 0.025 kg/m3
460 K, 4123.4 kPa | 57.2232 ± 0.025 kg/m3
460 K, 4123.6 kPa | 57.2271 ± 0.025 kg/m3
460 K, 4123.8 kPa | 57.2284 ± 0.025 kg/m3
460 K, 4978.5 kPa | 72.26 ± 0.012 kg/m3
460 K, 4978.6 kPa | 72.2622 ± 0.012 kg/m3
460 K, 6345.6 kPa | 99.2922 ± 0.016 kg/m3 [middle of 4 runs]
460 K, 8445 kPa | 147.718 ± 0.022 kg/m3 and 147.719 ± 0.022 kg/m3 and 147.717 ± 0.022 kg/m3
460 K, 8445.1 kPa | 147.721 ± 0.022 kg/m3
460 K, 8731.7 kPa | 154.767 ± 0.037 kg/m3
460 K, 8731.9 kPa | 154.768 ± 0.037 kg/m3
460 K, 8732 kPa | 154.77 ± 0.037 kg/m3 and 154.768 ± 0.037 kg/m3
460 K, 11420 kPa | 218.352 ± 0.048 kg/m3 [middle of 8 runs]
460.01 K, 687.74 kPa | 8.1493 ± 0.0033 kg/m3
460.01 K, 687.75 kPa | 8.1496 ± 0.0033 kg/m3 and 8.1495 ± 0.0033 kg/m3
460.01 K, 1046.4 kPa | 12.5877 ± 0.0038 kg/m3
460.01 K, 1046.6 kPa | 12.591 ± 0.0038 kg/m3
460.01 K, 4978.7 kPa | 72.2625 ± 0.012 kg/m3
460.01 K, 4978.8 kPa | 72.2648 ± 0.012 kg/m3
460.01 K, 4978.9 kPa | 72.2665 ± 0.012 kg/m3 [middle of 4 runs]
460.01 K, 8434.9 kPa | 147.459 ± 0.036 kg/m3
460.01 K, 8435 kPa | 147.46 ± 0.036 kg/m3
460.01 K, 8435.1 kPa | 147.462 ± 0.036 kg/m3 and 147.464 ± 0.036 kg/m3 and 147.461 ± 0.036 kg/m3
460.01 K, 8435.2 kPa | 147.464 ± 0.036 kg/m3 and 147.463 ± 0.036 kg/m3 and 147.466 ± 0.036 kg/m3
480 K, 716.12 kPa | 8.1077 ± 0.0033 kg/m3
480 K, 716.13 kPa | 8.1078 ± 0.0033 kg/m3 and 8.1079 ± 0.0033 kg/m3 and 8.108 ± 0.0033 kg/m3
480 K, 1038.1 kPa | 11.8882 ± 0.0037 kg/m3
480 K, 1924.9 kPa | 22.769 ± 0.018 kg/m3 and 22.7696 ± 0.018 kg/m3
480 K, 1925 kPa | 22.771 ± 0.018 kg/m3
480 K, 1925.1 kPa | 22.7716 ± 0.018 kg/m3 and 22.7708 ± 0.018 kg/m3
480 K, 3069 kPa | 37.9021 ± 0.021 kg/m3
480 K, 3069.2 kPa | 37.9044 ± 0.021 kg/m3 and 37.905 ± 0.021 kg/m3
480 K, 3069.5 kPa | 37.9086 ± 0.021 kg/m3
480 K, 3069.6 kPa | 37.9115 ± 0.021 kg/m3
480 K, 4376.6 kPa | 56.9392 ± 0.01 kg/m3
480 K, 4376.8 kPa | 56.9424 ± 0.01 kg/m3
480 K, 4377.1 kPa | 56.9487 ± 0.01 kg/m3
480 K, 4377.2 kPa | 56.9487 ± 0.01 kg/m3
480 K, 4377.6 kPa | 56.955 ± 0.01 kg/m3
480 K, 5340.5 kPa | 72.2831 ± 0.012 kg/m3 and 72.2827 ± 0.012 kg/m3
480 K, 5340.6 kPa | 72.285 ± 0.012 kg/m3
480 K, 6880.9 kPa | 99.2607 ± 0.016 kg/m3 and 99.2626 ± 0.016 kg/m3
480 K, 6881 kPa | 99.2628 ± 0.016 kg/m3
480 K, 9330.8 kPa | 147.276 ± 0.033 kg/m3 and 147.278 ± 0.033 kg/m3
480 K, 9330.9 kPa | 147.278 ± 0.033 kg/m3 and 147.275 ± 0.033 kg/m3
480 K, 9331 kPa | 147.279 ± 0.033 kg/m3
480 K, 9343.8 kPa | 147.548 ± 0.022 kg/m3
480 K, 9343.9 kPa | 147.549 ± 0.022 kg/m3 and 147.552 ± 0.022 kg/m3
480 K, 9344 kPa | 147.551 ± 0.022 kg/m3
480 K, 9344.1 kPa | 147.55 ± 0.022 kg/m3
480 K, 9689.8 kPa | 154.575 ± 0.034 kg/m3
480 K, 9690 kPa | 154.576 ± 0.034 kg/m3
480 K, 9690.1 kPa | 154.579 ± 0.034 kg/m3
480 K, 9690.2 kPa | 154.581 ± 0.034 kg/m3 and 154.58 ± 0.034 kg/m3
480 K, 13007 kPa | 218.012 ± 0.041 kg/m3 and 218.013 ± 0.041 kg/m3 and 218.014 ± 0.041 kg/m3
480.01 K, 399.65 kPa | 4.4746 ± 0.0029 kg/m3 and 4.4747 ± 0.0029 kg/m3 and 4.4744 ± 0.0029 kg/m3
480.01 K, 1038.8 kPa | 11.899 ± 0.0037 kg/m3
480.01 K, 1039.1 kPa | 11.9024 ± 0.0037 kg/m3
480.01 K, 1039.3 kPa | 11.9056 ± 0.0037 kg/m3
480.01 K, 1041.9 kPa | 11.9354 ± 0.0037 kg/m3
480.01 K, 5340.5 kPa | 72.2834 ± 0.012 kg/m3 and 72.2836 ± 0.012 kg/m3
480.01 K, 5340.6 kPa | 72.2841 ± 0.012 kg/m3 and 72.2848 ± 0.012 kg/m3 and 72.2843 ± 0.012 kg/m3
480.01 K, 6880.9 kPa | 99.2609 ± 0.016 kg/m3 and 99.2601 ± 0.016 kg/m3
480.01 K, 9330.9 kPa | 147.277 ± 0.033 kg/m3
480.01 K, 9331 kPa | 147.28 ± 0.033 kg/m3 and 147.281 ± 0.033 kg/m3
480.01 K, 13007 kPa | 218.014 ± 0.041 kg/m3
480.01 K, 13008 kPa | 218.016 ± 0.041 kg/m3
500 K, 415.04 kPa | 4.4539 ± 0.0029 kg/m3 and 4.454 ± 0.0029 kg/m3
500 K, 415.05 kPa | 4.454 ± 0.0029 kg/m3
500 K, 744.3 kPa | 8.0688 ± 0.0033 kg/m3
500 K, 744.34 kPa | 8.0689 ± 0.0033 kg/m3
500 K, 1058.4 kPa | 11.5875 ± 0.0037 kg/m3 and 11.5868 ± 0.0037 kg/m3
500 K, 2016.7 kPa | 22.7375 ± 0.018 kg/m3
500 K, 2016.8 kPa | 22.7381 ± 0.018 kg/m3
500 K, 2016.9 kPa | 22.7385 ± 0.018 kg/m3
500 K, 2017 kPa | 22.7394 ± 0.018 kg/m3
500 K, 3242.8 kPa | 37.9947 ± 0.019 kg/m3
500 K, 3243.6 kPa | 38.0051 ± 0.019 kg/m3
500 K, 3243.7 kPa | 38.0059 ± 0.019 kg/m3 and 38.0062 ± 0.019 kg/m3
500 K, 3243.9 kPa | 38.0086 ± 0.019 kg/m3
500 K, 4643.7 kPa | 56.9284 ± 0.01 kg/m3
500 K, 4644 kPa | 56.9317 ± 0.01 kg/m3
500 K, 4644.4 kPa | 56.9376 ± 0.01 kg/m3
500 K, 4644.5 kPa | 56.9398 ± 0.01 kg/m3
500 K, 4644.6 kPa | 56.941 ± 0.01 kg/m3
500 K, 7408.7 kPa | 99.2014 ± 0.016 kg/m3 and 99.1992 ± 0.016 kg/m3
500 K, 7408.8 kPa | 99.1996 ± 0.016 kg/m3 and 99.1999 ± 0.016 kg/m3
500 K, 10218 kPa | 147.109 ± 0.031 kg/m3 and 147.114 ± 0.031 kg/m3
500 K, 10219 kPa | 147.115 ± 0.031 kg/m3
500 K, 10234 kPa | 147.392 ± 0.022 kg/m3 and 147.391 ± 0.022 kg/m3 and 147.393 ± 0.022 kg/m3
500 K, 10637 kPa | 154.378 ± 0.032 kg/m3 [middle of 5 runs]
500 K, 14582 kPa | 217.649 ± 0.038 kg/m3 and 217.645 ± 0.038 kg/m3 and 217.644 ± 0.038 kg/m3
500 K, 14583 kPa | 217.649 ± 0.038 kg/m3
500.01 K, 415.04 kPa | 4.4539 ± 0.0029 kg/m3
500.01 K, 744.34 kPa | 8.069 ± 0.0033 kg/m3
500.01 K, 744.35 kPa | 8.069 ± 0.0033 kg/m3
500.01 K, 1058.3 kPa | 11.5848 ± 0.0037 kg/m3
500.01 K, 1058.7 kPa | 11.5888 ± 0.0037 kg/m3
500.01 K, 1059.3 kPa | 11.5965 ± 0.0037 kg/m3
500.01 K, 5697.7 kPa | 72.2794 ± 0.012 kg/m3 and 72.2805 ± 0.012 kg/m3 and 72.2784 ± 0.012 kg/m3
500.01 K, 5697.8 kPa | 72.2813 ± 0.012 kg/m3 [middle of 4 runs]
500.01 K, 5697.9 kPa | 72.2822 ± 0.012 kg/m3
500.01 K, 10218 kPa | 147.112 ± 0.031 kg/m3 and 147.116 ± 0.031 kg/m3
500.01 K, 10219 kPa | 147.118 ± 0.031 kg/m3 and 147.116 ± 0.031 kg/m3
500.01 K, 14582 kPa | 217.641 ± 0.038 kg/m3 and 217.644 ± 0.038 kg/m3
500.01 K, 14583 kPa | 217.647 ± 0.038 kg/m3
